From US20250154686A1, “COMPOUND LIBRARY” (CHUGAI SEIYAKU KABUSHIKI KAISHA, priority 2021, published 2025)

Target: T1, Bcl-2 protein (Recombinant Human Bcl-2 Protein) (Homo sapiens, UniProt P10415)
T1 construct: purchased Novus Biologicals NBP2-34889
Test: AS-MS evaluation of binding of the Example 4 mixture library (1200 compounds/well) to Bcl-2, ASMS ratio (%)
Conditions: AS-MS, Example 4 mixture library; for ASMS ratio (%) n = 1: Bcl-2, replicate n = 1; for ASMS ratio (%) n = 2: Bcl-2, replicate n = 2
In short: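 ASMS ratio (%) derived from reverse-phase LC/MS of three samples: Bcl-2 (20 μM) incubation after SEC, protein-free standard without SEC, and protein-free blank after SEC. Compounds were pooled at 1200/well, 20 nM each, incubated 1 h, 23 °C, dark, in Tris-HCl pH 7.4 buffer with Tween-20 and DTT.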

T1 sequence (P10415 whole entry): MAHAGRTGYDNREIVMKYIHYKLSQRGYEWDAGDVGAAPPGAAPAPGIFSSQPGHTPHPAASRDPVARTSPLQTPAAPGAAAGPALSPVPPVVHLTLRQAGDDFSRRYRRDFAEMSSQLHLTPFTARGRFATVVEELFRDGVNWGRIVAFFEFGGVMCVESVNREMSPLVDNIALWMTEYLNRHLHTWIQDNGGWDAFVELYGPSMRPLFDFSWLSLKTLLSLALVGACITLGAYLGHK

Row | SMILES | ASMS ratio (%) n = 1 [%] | ASMS ratio (%) n = 2 [%]
1 | CCOc1cncc(-c2cc(C(=O)N3CCN(c4ccc(C(=O)NS(=O)(=O)CCC(F)(F)F)nn4)CC3)cc(C(C)(C)C)c2)c1 [Compound B2N016-01, 6-[4-[3-tert-Butyl-5-(5-ethoxypyridin-3-yl)benzoyl]piperazin-1-yl]-N-(3,3,3-trifluoropropylsulfonyl)pyridazine-3-carboxamide] | 0.0 | 0.0
2 | CCOc1cncc(-c2cc(C(=O)N3CCN(c4ccc(C(=O)NS(=O)(=O)CCC(F)(F)F)nn4)CC3)cc(C(F)(F)F)c2)c1 [Compound B2N018-01, 6-[4-[3-(5-Ethoxypyridin-3-yl)-5-(trifluoromethyl)benzoyl]piperazin-1-yl]-N-(3,3,3-trifluoropropylsulfonyl)pyridazine-3-carboxamide] | 0.0 | 1.0
3 | CCOc1cccc(-c2cnn(-c3cc(C(=O)N4CCN(c5ccc(C(=O)NS(=O)(=O)CCC(F)(F)F)nn5)CC4)cc(C(F)(F)F)c3)c2)c1 [Compound B2N021-01, 6-[4-[3-[4-(3-Ethoxyphenyl)pyrazol-1-yl]-5-(trifluoromethyl)benzoyl]piperazin-1-yl]-N-(3,3,3-trifluoropropylsulfonyl)pyridazine-3-carboxamide] |  | 0.0
4 | CCOc1cncc(-c2cnn(-c3cc(C(=O)N4CCN(c5ccc(C(=O)NS(=O)(=O)CCC(F)(F)F)nn5)CC4)cc(C(F)(F)F)c3)c2)c1 [Compound B2N022-01, 6-[4-[3-[4-(5-Ethoxypyridin-3-yl)pyrazol-1-yl]-5-(trifluoromethyl)benzoyl]piperazin-1-yl]-N-(3,3,3-trifluoropropylsulfonyl)pyridazine-3-carboxamide] | 0.0 | 0.0
5 | CCOc1cccc(-c2ccc(C(=O)N3CCN(c4ccc(C(=O)NS(=O)(=O)CCC(F)(F)F)cc4)CC3)cc2C)c1 [Compound B2N025-01, 4-[4-[4-(3-Ethoxyphenyl)-3-methylbenzoyl]piperazin-1-yl]-N-(3,3,3-trifluoropropylsulfonyl)benzamide] | 0.0 | 0.0
6 | CCOc1cncc(-c2ccc(C(=O)N3CCN(c4ccc(C(=O)NS(=O)(=O)CCC(F)(F)F)cc4)CC3)cc2F)c1 [Compound B2N028-01, 4-[4-[4-(5-Ethoxypyridin-3-yl)-3-fluorobenzoyl]piperazin-1-yl]-N-(3,3,3-trifluoropropylsulfonyl)benzamide] | −0.7 | −0.9
7 | CCOc1cccc(C#Cc2cncc(C(=O)N3CCN(c4ccc(C(=O)NS(=O)(=O)CCC(F)(F)F)cc4)CC3)c2)c1 [Compound B2N031-01, 4-[4-[5-[2-(3-Ethoxyphenyl)ethynyl]pyridine-3-carbonyl]piperazin-1-yl]-N-(3,3,3-trifluoropropylsulfonyl)benzamide] | 0.0 | 0.0
8 | CCOc1cncc(C#Cc2cncc(C(=O)N3CCN(c4ccc(C(=O)NS(=O)(=O)CCC(F)(F)F)cc4)CC3)c2)c1 [Compound B2N032-01, 4-[4-[5-[2-(5-Ethoxypyridin-3-yl)ethynyl]pyridine-3-carbonyl]piperazin-1-yl]-N-(3,3,3-trifluoropropylsulfonyl)benzamide] | −0.4 | −1.0
9 | CCOc1cccc(-c2ccccc2CCC(=O)N2CCN(c3ccc(C(=O)NS(=O)(=O)CCC(F)(F)F)cc3)CC2)c1 [Compound B2N033-01, 4-[4-[3-[2-(3-Ethoxyphenyl)phenyl]propanoyl]piperazin-1-yl]-N-(3,3,3-trifluoropropylsulfonyl)benzamide] | 0.0 | 0.0
10 | CCOc1cncc(-c2ccc(C(=O)N3CCN(c4ccc(C(=O)NS(=O)(=O)CCC(F)(F)F)cc4)CC3)c3ccccc23)c1 [Compound B2N036-01, 4-[4-[4-(5-Ethoxypyridin-3-yl)naphthalene-1-carbonyl]piperazin-1-yl]-N-(3,3,3-trifluoropropylsulfonyl)benzamide] | 0.0 | 0.4
11 | CCOc1cccc(-c2cc(C(=O)N3CCN(c4ccc(C(=O)NS(=O)(=O)CCC(F)(F)F)cc4)CC3)cc(C(C)(C)C)c2)c1 [Compound B2N037-01, 4-[4-[3-tert-Butyl-5-(3-ethoxyphenyl)benzoyl]piperazin-1-yl]-N-(3,3,3-trifluoropropylsulfonyl)benzamide] | 0.0 | 0.0
12 | CCOc1cncc(-c2cc(C(=O)N3CCN(c4ccc(C(=O)NS(=O)(=O)CCC(F)(F)F)cc4)CC3)cc(C(C)(C)C)c2)c1 [Compound B2N038-01, 4-[4-[3-tert-Butyl-5-(5-ethoxypyridin-3-yl)benzoyl]piperazin-1-yl]-N-(3,3,3-trifluoropropylsulfonyl)benzamide] | 0.0 | 0.0
13 | CCOc1cncc(-c2cc(C(=O)N3CCN(c4ccc(C(=O)NS(=O)(=O)CCC(F)(F)F)cc4)CC3)cc(C(F)(F)F)c2)c1 [Compound B2N040-01, 4-[4-[3-(5-Ethoxypyridin-3-yl)-5-(trifluoromethyl)benzoyl]piperazin-1-yl]-N-(3,3,3-trifluoropropylsulfonyl)benzamide] | 0.0 | 0.0
14 | CCOc1cncc(C#Cc2cc(C(=O)N3CCN(c4ccc(C(=O)NS(=O)(=O)CCC(F)(F)F)cc4)CC3)cc(C(F)(F)F)c2)c1 [Compound B2N042-01, 4-[4-[3-[2-(5-Ethoxypyridin-3-yl)ethynyl]-5-(trifluoromethyl)benzoyl]piperazin-1-yl]-N-(3,3,3-trifluoropropylsulfonyl)benzamide] | 0.0 | 0.0
15 | CCOc1cccc(-c2cnn(-c3cc(C(=O)N4CCN(c5ccc(C(=O)NS(=O)(=O)CCC(F)(F)F)cc5)CC4)cc(C(F)(F)F)c3)c2)c1 [Compound B2N043-01, 4-[4-[3-[4-(3-Ethoxyphenyl)pyrazol-1-yl]-5-(trifluoromethyl)benzoyl]piperazin-1-yl]-N-(3,3,3-trifluoropropylsulfonyl)benzamide] | −1.4 | 0.1
16 | CCOc1cncc(-c2cnn(-c3cc(C(=O)N4CCN(c5ccc(C(=O)NS(=O)(=O)CCC(F)(F)F)cc5)CC4)cc(C(F)(F)F)c3)c2)c1 [Compound B2N044-01, 4-[4-[3-[4-(5-Ethoxypyridin-3-yl)pyrazol-1-yl]-5-(trifluoromethyl)benzoyl]piperazin-1-yl]-N-(3,3,3-trifluoropropylsulfonyl)benzamide] | 0.2 | 1.4

Now from value to compound:

Row | ASMS ratio (%) n = 1 [%] | ASMS ratio (%) n = 2 [%] | SMILES
17 | 0.0 | 0.0 | CCOc1cncc(C#Cc2cc(C(=O)N3CCN(c4ccc(C(=O)NS(=O)(=O)CCC(F)(F)F)nn4)CC3)cc(C(F)(F)F)c2)c1 [Compound B2N020-01, 6-[4-[3-[2-(5-Ethoxypyridin-3-yl)ethynyl]-5-(trifluoromethyl)benzoyl]piperazin-1-yl]-N-(3,3,3-trifluoropropylsulfonyl)pyridazine-3-carboxamide]
18 | 0.0 | 0.0 | CCOc1cccc(-c2csc(C(=O)N3CCN(c4ccc(C(=O)NS(=O)(=O)CCC(F)(F)F)cc4)CC3)c2)c1 [Compound B2N023-01, 4-[4-[4-(3-Ethoxyphenyl)thiophene-2-carbonyl]piperazin-1-yl]-N-(3,3,3-trifluoropropylsulfonyl)benzamide]
19 | 0.0 | 0.0 | CCOc1cncc(-c2csc(C(=O)N3CCN(c4ccc(C(=O)NS(=O)(=O)CCC(F)(F)F)cc4)CC3)c2)c1 [Compound B2N024-01, 4-[4-[4-(5-Ethoxypyridin-3-yl)thiophene-2-carbonyl]piperazin-1-yl]-N-(3,3,3-trifluoropropylsulfonyl)benzamide]
20 | −1.5 | −0.7 | CCOc1cncc(-c2ccc(C(=O)N3CCN(c4ccc(C(=O)NS(=O)(=O)CCC(F)(F)F)cc4)CC3)cc2C)c1 [Compound B2N026-01, 4-[4-[4-(5-Ethoxypyridin-3-yl)-3-methylbenzoyl]piperazin-1-yl]-N-(3,3,3-trifluoropropylsulfonyl)benzamide]
21 | 0.0 | 0.0 | CCOc1cncc(C#Cc2ccccc2C(=O)N2CCN(c3ccc(C(=O)NS(=O)(=O)CCC(F)(F)F)cc3)CC2)c1 [Compound B2N030-01, 4-[4-[2-[2-(5-Ethoxypyridin-3-yl)ethynyl]benzoyl]piperazin-1-yl]-N-(3,3,3-trifluoropropylsulfonyl)benzamide]
22 | −0.2 | 1.0 | CCOc1cncc(-c2ccccc2CCC(=O)N2CCN(c3ccc(C(=O)NS(=O)(=O)CCC(F)(F)F)cc3)CC2)c1 [Compound B2N034-01, 4-[4-[3-[2-(5-Ethoxypyridin-3-yl)phenyl]propanoyl]piperazin-1-yl]-N-(3,3,3-trifluoropropylsulfonyl)benzamide]
23 | 0.0 | 0.0 | CCOc1cccc(-c2ccc(C(=O)N3CCN(c4ccc(C(=O)NS(=O)(=O)CCC(F)(F)F)cc4)CC3)c3ccccc23)c1 [Compound B2N035-01, 4-[4-[4-(3-Ethoxyphenyl)naphthalene-1-carbonyl]piperazin-1-yl]-N-(3,3,3-trifluoropropylsulfonyl)benzamide]
24 | 0.0 | 0.1 | CCOc1cccc(-c2ccccc2CN2CCN(c3ccc(C(=O)NS(=O)(=O)CCC(F)(F)F)cc3)CC2)c1 [Compound B2N045-01, 4-[4-[[2-(3-Ethoxyphenyl)phenyl]methyl]piperazin-1-yl]-N-(3,3,3-trifluoropropylsulfonyl)benzamide]
